From patent publication US20230172204A1 (BASF SE, priority 2020, published 2023)
Like-named read-outs stand apart in the source and are kept apart here.

Columns and labels:
[1] = test system: Alternaria solani (F129L); test: Micro titer plate test against Alternaria solani causing early blight (ALTESO F129L); type: cell-based; conditions: 0.016 ppm; for activity at 0.016 ppm: Alternaria solani, 168 h, read-out: Fungal growth (%) ALTESO F129L
[2] = test system: Septoria tritici; test: microbe, parasite or virus in culture; type: cell-based; conditions: for activity at 0.25 ppm: Zymoseptoria tritici, 168 h, read-out: Fungal growth (%) SEPTTR
[3] = test system: Pyricularia oryzae; test: microbe, parasite or virus in culture; type: cell-based; conditions: for activity at 0.016 ppm: Pyricularia oryzae, 168 h, read-out: Fungal growth (%) PYRIOR
[4] = test system: Alternaria solani (wt); test: microbe, parasite or virus in culture; type: cell-based
[5] = test system: Phakopsora pachyrhizi (F129L); test: Protective control of soybean rust on soybeans (PHAKPA P6); type: in vivo; conditions: for % PHAKPA (F129L) Disease level P6 at 4 ppm: protective P6, 4 ppm; for % PHAKPA (F129L) Disease level P6 at 4 ppm / % PHAKPA (F129L) Disease level P6 at 16 ppm: soybean rust F129L; for % PHAKPA (F129L) Disease level P6 at 16 ppm: protective P6, 16 ppm
[6] = test system: Phakopsora pachyrhizi (F129L); test: Protective control of soybean rust on soybeans (PHAKPA P2); type: in vivo; conditions: for % PHAKPA (F129L) Disease level P2 at 4 ppm: protective P2, 4 ppm; for % PHAKPA (F129L) Disease level P2 at 4 ppm / % PHAKPA (F129L) Disease level P2 at 16 ppm: soybean rust F129L; for % PHAKPA (F129L) Disease level P2 at 16 ppm: protective P2, 16 ppm
[7] = test system: Colletotrichum orbiculare; test: Micro titer plate test against Colletotrichum orbiculare causing anthracnose (COLLLA); type: cell-based; conditions: for activity at 0.063 ppm: Colletotrichum orbiculare, 168 h, read-out: Fungal growth (%) COLLLA
[8] = test system: Pyrenophora teres (F129L); test: Micro titer plate test against Pyrenophora teres causing net blotch on barley (PYRNTE F129L); type: cell-based; conditions: 0.25 ppm
[9] = test system: Cercospora sojina; test: microbe, parasite or virus in culture; type: cell-based; conditions: Cercospora sojina, 168 h; 4 ppm; read-out: Fungal growth (%) CERCSO
[10] = test system: Pyrenophora teres (wt); test: Micro titer plate test against Pyrenophora teres causing net blotch on barley (PYRNTE wt); type: cell-based; conditions: 168 h, 0.25 ppm, read-out: Fungal growth (%) PYRNTE wt
[11] = test system: Microdochium nivale; test: Micro titer plate test against Microdochium nivale causing snow mould (MONGNI); type: cell-based; conditions: Microdochium nivale, 168 h; 0.016 ppm; read-out: Fungal growth (%) MONGNI
[12] = test system: Phakopsora pachyrhizi (wt); type: in vivo; conditions: Qo I-sensitive wt isolate (0% F129L)
[13] = test system: Leptosphaeria nodorum; test: Micro titer plate test against Leptosphaeria nodorum causing wheat leaf spots (LEPTNO); type: cell-based; conditions: Parastagonospora nodorum, 168 h; 0.063 ppm; read-out: Fungal growth (%) LEPTNO
[14] = P6 protective, % diseased leaf area
[15] = P2 protective, % diseased leaf area

| SMILES | % PHAKPA (F129L) Disease level P6 at 4 ppm [5] [%] | % PHAKPA (F129L) Disease level P6 at 16 ppm [5] [%] | % PHAKPA (F129L) Disease level P2 at 4 ppm [6] [%] | % PHAKPA (F129L) Disease level P2 at 16 ppm [6] [%] | Fungal growth (%) PYRNTE F129L [8] [%] | activity at 4 ppm [9] [%] | activity at 0.25 ppm [10] [%] | activity at 0.016 ppm [11] [%] | activity at 0.25 ppm [2] [%] | activity at 0.016 ppm [3] [%] | activity at 0.063 ppm [7] [%] | further results |
| --- | --- | --- | --- | --- | --- | --- | --- | --- | --- | --- | --- | --- |
| CNC(=O)/C(=N/OC)c1cccc(C)c1CO/N=C(\C)c1cccc(C)c1 [Ex. 77] | 40 | 3 | 67 | 4 | – | – | – | – | – | – | – | Fungal growth (%) ALTESO F129L [1]: 69%; Fungal growth (%) SEPTTR ([2]; 0.25 ppm): 49%; Fungal growth (%) PYRIOR ([3]; 0.016 ppm): 20%; Fungal growth (%) ALTESO wt ([4]; 0.016 ppm): 73%; PHAKPA (F129L) Disease level (%) P6 at 16 ppm [5, 14]: 20%; PHAKPA (F129L) Disease level (%) P2 at 4 ppm [6, 15]: 37%; Fungal growth (%) COLLLA ([7]; 0.063 ppm): 39% |
| CNC(=O)/C(=N/OC)c1cccc(C)c1CO/N=C(\SC)c1cccc(Cl)c1 [drawing 968] | – | – | – | – | 80 | 78 | 76 | 100 | – | – | – | – |
| CO/N=C(/C(=O)OC)c1cccc(C)c1CO/N=C(/c1cccc(C)c1)C1CC1 [drawing 951] | – | – | – | – | 87 | – | – | 84 | 89 | 82 | 93 | – |
| CO/N=C(/C(=O)OC)c1cccc(C)c1CO/N=C(\SC)c1cccc(C)c1 [drawing 950] | – | – | – | – | – | – | – | 69 | 61 | 87 | 81 | – |
| Cc1cccc(-n2nnn(C)c2=O)c1COc1ccn(-c2ccc(Cl)cc2)n1 [drawing 930] | – | – | – | – | – | – | – | – | – | – | – | PHAKPA P1 DL Disease level (%) ([12]; 0.3 ppm): 78%; PHAKPA P1 DL Disease level (%) ([12]; 1 ppm): 80%; PHAKPA P1 DL Disease level (%) ([12]; 3 ppm): 77%; PHAKPA P1 DL Disease level (%) ([12]; 10 ppm): 48%; PHAKPA P1 DL Disease level (%) ([12]; 30 ppm): 30%; PHAKPA P1 DL Disease level (%) ([12]; 100 ppm): 18%; PHAKPA P1 DL Disease level (%) ([12]; 300 ppm): 5% |
| CO/N=C(/C(=O)OC)c1cccc(C)c1CO/N=C(\C)c1cccc(Cl)c1 [Ex. 153] | 22 | 1 | 12 | 3 | – | 26 | 31 | 75 | 0 | 50 | 55 | activity at 0.063 ppm [13]: 55%; activity at 0.016 ppm [1]: 68%; activity at 0.016 ppm ([4]; Alternaria solani, 168 h, 0.016 ppm, read-out: Fungal growth (%) ALTESO wt): 71%; PHAKPA (F129L) Disease level (%) P2 at 4 ppm [6, 15]: 19%; PHAKPA (F129L) Disease level (%) P2 at 16 ppm ([6]; P2 protective, 16 ppm, % diseased leaf area): 5% |
| CO/N=C(/C(=O)OC)c1cccc(C)c1CO/N=C(\C)c1cccc(OC(F)(F)F)c1 [drawing 940] | – | – | – | – | 84 | – | 87 | 86 | – | – | – | activity at 0.063 ppm [13]: 79% |
| CNC(=O)/C(=N/OC)c1cccc(C)c1CO/N=C(\C)c1cccc(Cl)c1 [Ex. 157] | 1 | 0 | 1 | 0 | 58 | 36 | 54 | 56 | 20 | 15 | 63 | activity at 0.016 ppm [1]: 57%; activity at 0.25 ppm ([4]; Alternaria solani, 168 h, 0.25 ppm, read-out: Fungal growth (%) ALTESO wt): 27%; PHAKPA (F129L) Disease level (%) P6 at 4 ppm ([5]; P6 protective, 4 ppm, % diseased leaf area): 2%; PHAKPA (F129L) Disease level (%) P6 at 16 ppm [5, 14]: 1% |
